Experimental data as given in ChEMBL document CHEMBL5579895, “Discovery of TYRA-300: First Oral Selective FGFR3 Inhibitor for the Treatment of Urothelial Cancers and Achondroplasia” (J Med Chem, 2024).
≈ marks a conversion by molar mass, not a printed value.

Experiments:
[1] = AUC (last) in monkey at 1 mg/kg, iv measured for 24 hrs by LC-MS/MS analysis; format: ADME, organism-based, Macaca mulatta; conditions: rhesus monkey, in vivo
RT112/84 [2] = experiment: animal or person; format: functional, Homo sapiens; conditions: Mus musculus, RT112/84, 504 h, route po, time 21 day, read-out: TGI
Description: Antitumor activity against human RT112/84 cells harboring FGFR3/TACC3 fusion xenografted in Balb/c nude mouse model at 12.5 mg/kg, po bid treated for 21 days relative to control

[3] = biological target: Vascular endothelial growth factor receptor 2 (Homo sapiens, UniProt P35968); experiment: Inhibition of human VEGFR2 at 100 nM by KINOMEscan analysis relative to control
[4] = Half life in monkey at 1 mg/kg, iv measured for 24 hrs by LC-MS/MS analysis; format: ADME, organism-based, Macaca mulatta; conditions: rhesus monkey, in vivo
[5] = biological target: Voltage-gated inwardly rectifying potassium channel KCNH2 (Homo sapiens, UniProt Q12809); experiment: Inhibition of hERG expressed in CHO cells by automated patch-clamp assay; format: toxicity, cell-based
[6] = Tmax in Sprague-Dawley rat at 10 mg/kg, po measured for 24 hrs by LC-MS/MS analysis; format: ADME, organism-based; conditions: in vivo
[7] = biological target: Tyrosine-protein kinase JAK3 (Homo sapiens, UniProt P52333); experiment: Inhibition of human JAK3 by KINOMEscan analysis
[8] = biological target: Vascular endothelial growth factor receptor 3 (Homo sapiens, UniProt P35916); experiment: Inhibition of human FLT4 by KINOMEscan analysis
KG-1 = experiment: Inhibition of cell viability in human KG-1 cells harboring FGFR1-fusion incubated for 72 to 120 hrs by Cell Titer Glo assay; format: functional, cell-based
[9] = Volume of distribution in Sprague-Dawley rat at 2 mg/kg, iv measured for 24 hrs by LC-MS/MS analysis; format: ADME, organism-based; conditions: in vivo
[10] = Half life in dog at 10 mg/kg, po measured for 24 hrs by LC-MS/MS analysis; format: ADME, organism-based, Canis lupus familiaris; conditions: in vivo
[11] = biological target: Fibroblast growth factor receptor 2 (Homo sapiens, UniProt P21802); experiment: Inhibition of human FGFR2 by KINOMEscan analysis
[12] = Inhibition of recombinant FGFR3/BAIAP2L1 (unknown origin) transduced in mouse BaF3 cells incubated for 48 hrs by Cell Titer Glo assay; format: cell-based; conditions: BaF3, 48 h
[13] = biological target: Tyrosine-protein kinase JAK2 (Homo sapiens, UniProt O60674); experiment: Inhibition of human JAK2 by KINOMEscan analysis
[14] = AUC (last) in Sprague-Dawley rat at 10 mg/kg, po measured for 24 hrs by LC-MS/MS analysis; format: ADME, organism-based; conditions: in vivo
[15] = Half life in Sprague-Dawley rat at 2 mg/kg, iv measured for 24 hrs by LC-MS/MS analysis; format: ADME, organism-based; conditions: in vivo
[16] = Clearance in dog at 1 mg/kg, iv measured for 24 hrs by LC-MS/MS analysis; format: ADME, organism-based, Canis lupus familiaris; conditions: in vivo
[17] = biological target: Fibroblast growth factor receptor 3 (Homo sapiens, UniProt P22607, V555M); experiment: Inhibition of FGFR3 V555M mutant (unknown origin) by mobility shift assay
RT-4 = experiment: Inhibition of cell viability in human RT-4 cells harboring FGFR3/TACC3 fusion incubated for 72 to 120 hrs by Cell Titer Glo assay; format: functional, cell-based
[18] = Tmax in dog at 10 mg/kg, po measured for 24 hrs by LC-MS/MS analysis; format: ADME, organism-based, Canis lupus familiaris; conditions: in vivo
[19] = Thermodynamic solubility in FeSSIF; format: ADME; conditions: read-out: Therm_solubility
[20] = biological target: T1, Fibroblast growth factor receptor 3 (Homo sapiens, UniProt P22607); experiment: Inhibition of wild-type FGFR3 (unknown origin) by NanoBRET assay
[21] = Thermodynamic solubility in FaSSIF; format: ADME; conditions: read-out: Therm_solubility
[22] = Inhibition of cell viability in human UMUC14 cells harboring FGFR3 V555M mutant incubated for 72 to 120 hrs by Cell Titer Glo assay; format: functional, cell-based
[23] = biological target: Vascular endothelial growth factor receptor 1 (Homo sapiens, UniProt P17948); experiment: Inhibition of human FLT1 by KINOMEscan analysis
[24] = Apparent permeability in human Caco-2 cells; format: ADME, cell-based
[25] = Volume of distribution in dog at 1 mg/kg, iv measured for 24 hrs by LC-MS/MS analysis; format: ADME, organism-based, Canis lupus familiaris; conditions: in vivo
[26] = biological target: Fibroblast growth factor receptor 3 (Homo sapiens, UniProt P22607, N540K); experiment: Inhibition of FGFR3 N540K mutant (unknown origin) by NanoBRET assay
[27] = Inhibition of cell viability in human UMUC14 cells harboring FGFR3 S249C mutant incubated for 72 to 120 hrs by Cell Titer Glo assay; format: functional, cell-based
[28] = biological target: Fibroblast growth factor receptor 1 (Homo sapiens, UniProt P11362); experiment: Inhibition of human FGFR1 by KINOMEscan analysis
[29] = Stability in human hepatocytes assessed as half life at 1 uM incubated upto 180 mins by LC-MS/MS analysis; format: ADME, cell-based, Hepatocyte
[30] = Cmax in monkey at 10 mg/kg, po measured for 24 hrs by LC-MS/MS analysis; format: ADME, organism-based, Macaca mulatta; conditions: rhesus monkey, in vivo
[31] = biological target: Fibroblast growth factor receptor 3 (Homo sapiens, UniProt P22607, G380R); experiment: Inhibition of FGFR3 G380R mutant (unknown origin) by NanoBRET assay
DMS-114 = experiment: Inhibition of cell viability in human DMS-114 cells harboring FGFR1-amplification incubated for 72 to 120 hrs by Cell Titer Glo assay; format: functional, cell-based
[32] = biological target: Fibroblast growth factor receptor 3 (Homo sapiens, UniProt P22607, K650M); experiment: Inhibition of FGFR3 K650M mutant (unknown origin) by mobility shift assay
[33] = AUC (last) in dog at 10 mg/kg, po measured for 24 hrs by LC-MS/MS analysis; format: ADME, organism-based, Canis lupus familiaris; conditions: in vivo
[34] = Stability in human hepatocytes assessed as intrinsic clearance at 1 uM incubated upto 180 mins by LC-MS/MS analysis; format: ADME, cell-based, Hepatocyte; conditions: read-out: CLH
[35] = AUC (last) in dog at 1 mg/kg, iv measured for 24 hrs by LC-MS/MS analysis; format: ADME, organism-based, Canis lupus familiaris; conditions: in vivo
[36] = Half life in dog at 1 mg/kg, iv measured for 24 hrs by LC-MS/MS analysis; format: ADME, organism-based, Canis lupus familiaris; conditions: in vivo
[37] = biological target: Fibroblast growth factor receptor 4 (Homo sapiens, UniProt P22455); experiment: Inhibition of human FGFR4 by KINOMEscan analysis
RT112/84 [38] = experiment: cells; format: functional, cell-based; conditions: Homo sapiens
Description: Inhibition of cell viability in human RT112/84 cells harboring FGFR3 V555M mutant incubated for 72 to 120 hrs by Cell Titer Glo assay

[39] = biological target: T1, Fibroblast growth factor receptor 3; experiment: Inhibition of wild-type FGFR3 (unknown origin) by mobility shift assay
RT112/84 [40] = experiment: cells; format: functional, cell-based; conditions: Homo sapiens; remark: listed apart in the source
Description: Inhibition of cell viability in human RT112/84 cells harboring FGFR3/TACC3 fusion incubated for 72 to 120 hrs by Cell Titer Glo assay

[41] = Clearance in Sprague-Dawley rat at 2 mg/kg, iv measured for 24 hrs by LC-MS/MS analysis; format: ADME, organism-based; conditions: in vivo
[42] = Tmax in monkey at 10 mg/kg, po measured for 24 hrs by LC-MS/MS analysis; format: ADME, organism-based, Macaca mulatta; conditions: rhesus monkey, in vivo
RT112/84 [43] = experiment: animal or person; format: functional, Homo sapiens; conditions: Mus musculus, RT112/84, 504 h, route po, time 21 day, read-out: TGI; remark: listed apart in the source
Description: Antitumor activity against human RT112/84 cells harboring FGFR3 V555M mutant xenografted in Balb/c nude mouse model at 12.5 mg/kg, po bid treated for 21 days relative to control

[44] = Stability in mouse hepatocytes assessed as half life at 1 uM incubated upto 180 mins by LC-MS/MS analysis; format: ADME, cell-based, Hepatocyte

T1 sequence (P22607 whole entry): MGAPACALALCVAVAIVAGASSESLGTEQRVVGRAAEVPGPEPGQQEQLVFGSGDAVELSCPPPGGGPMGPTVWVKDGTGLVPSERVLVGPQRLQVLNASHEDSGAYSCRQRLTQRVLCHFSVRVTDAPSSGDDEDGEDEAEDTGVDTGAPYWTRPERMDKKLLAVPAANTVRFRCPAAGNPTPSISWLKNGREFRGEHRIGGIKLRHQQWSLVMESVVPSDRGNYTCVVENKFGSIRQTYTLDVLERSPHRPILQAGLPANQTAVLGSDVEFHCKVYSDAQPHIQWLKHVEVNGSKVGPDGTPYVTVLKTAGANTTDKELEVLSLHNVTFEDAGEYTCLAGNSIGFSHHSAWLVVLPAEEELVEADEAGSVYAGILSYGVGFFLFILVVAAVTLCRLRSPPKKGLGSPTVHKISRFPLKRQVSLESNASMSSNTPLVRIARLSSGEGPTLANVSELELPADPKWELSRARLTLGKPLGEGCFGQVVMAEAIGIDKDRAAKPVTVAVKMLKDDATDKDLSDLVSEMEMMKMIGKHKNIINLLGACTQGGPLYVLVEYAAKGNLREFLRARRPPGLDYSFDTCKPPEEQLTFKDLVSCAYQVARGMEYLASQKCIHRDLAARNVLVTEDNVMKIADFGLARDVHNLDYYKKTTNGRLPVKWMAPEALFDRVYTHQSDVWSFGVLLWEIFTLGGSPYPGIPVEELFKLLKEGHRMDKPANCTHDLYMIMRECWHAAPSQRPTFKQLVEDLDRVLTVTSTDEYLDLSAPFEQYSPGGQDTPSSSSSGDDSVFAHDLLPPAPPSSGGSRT
Chain of Voltage-gated inwardly rectifying potassium channel KCNH2 (Q12809 whole entry): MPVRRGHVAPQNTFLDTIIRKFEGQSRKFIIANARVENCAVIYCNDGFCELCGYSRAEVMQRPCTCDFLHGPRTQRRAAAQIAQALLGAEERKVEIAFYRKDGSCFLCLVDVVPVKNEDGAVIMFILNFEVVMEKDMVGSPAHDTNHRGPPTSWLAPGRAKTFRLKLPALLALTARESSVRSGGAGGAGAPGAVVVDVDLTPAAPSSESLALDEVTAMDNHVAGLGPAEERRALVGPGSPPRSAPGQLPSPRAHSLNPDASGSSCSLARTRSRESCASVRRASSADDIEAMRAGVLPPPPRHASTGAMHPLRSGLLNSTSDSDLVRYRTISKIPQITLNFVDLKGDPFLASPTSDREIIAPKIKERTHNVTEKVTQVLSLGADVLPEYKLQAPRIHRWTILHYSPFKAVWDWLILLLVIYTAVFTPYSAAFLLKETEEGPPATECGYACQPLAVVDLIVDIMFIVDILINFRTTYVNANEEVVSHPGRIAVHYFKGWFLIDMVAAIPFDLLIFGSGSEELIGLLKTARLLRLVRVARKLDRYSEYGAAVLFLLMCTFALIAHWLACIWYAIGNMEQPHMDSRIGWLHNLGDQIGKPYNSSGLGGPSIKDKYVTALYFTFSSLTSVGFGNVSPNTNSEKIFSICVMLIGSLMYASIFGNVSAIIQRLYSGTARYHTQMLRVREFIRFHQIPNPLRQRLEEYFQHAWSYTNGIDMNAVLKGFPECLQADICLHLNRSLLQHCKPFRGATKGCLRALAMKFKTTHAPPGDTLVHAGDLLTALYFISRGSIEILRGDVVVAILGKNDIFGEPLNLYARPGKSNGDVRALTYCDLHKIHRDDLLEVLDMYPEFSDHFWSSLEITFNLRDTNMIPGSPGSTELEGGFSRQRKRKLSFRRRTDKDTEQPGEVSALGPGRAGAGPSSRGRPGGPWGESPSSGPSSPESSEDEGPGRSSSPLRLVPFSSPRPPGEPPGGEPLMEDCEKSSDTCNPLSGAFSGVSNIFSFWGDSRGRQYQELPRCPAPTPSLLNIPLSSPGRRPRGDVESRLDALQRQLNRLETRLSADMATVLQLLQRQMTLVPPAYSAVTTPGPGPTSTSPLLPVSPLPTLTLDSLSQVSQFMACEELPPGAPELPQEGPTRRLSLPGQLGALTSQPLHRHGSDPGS
Chain of Fibroblast growth factor receptor 3 (Homo sapiens, UniProt P22607, V555M) (P22607 23-806 V555M limits assumed): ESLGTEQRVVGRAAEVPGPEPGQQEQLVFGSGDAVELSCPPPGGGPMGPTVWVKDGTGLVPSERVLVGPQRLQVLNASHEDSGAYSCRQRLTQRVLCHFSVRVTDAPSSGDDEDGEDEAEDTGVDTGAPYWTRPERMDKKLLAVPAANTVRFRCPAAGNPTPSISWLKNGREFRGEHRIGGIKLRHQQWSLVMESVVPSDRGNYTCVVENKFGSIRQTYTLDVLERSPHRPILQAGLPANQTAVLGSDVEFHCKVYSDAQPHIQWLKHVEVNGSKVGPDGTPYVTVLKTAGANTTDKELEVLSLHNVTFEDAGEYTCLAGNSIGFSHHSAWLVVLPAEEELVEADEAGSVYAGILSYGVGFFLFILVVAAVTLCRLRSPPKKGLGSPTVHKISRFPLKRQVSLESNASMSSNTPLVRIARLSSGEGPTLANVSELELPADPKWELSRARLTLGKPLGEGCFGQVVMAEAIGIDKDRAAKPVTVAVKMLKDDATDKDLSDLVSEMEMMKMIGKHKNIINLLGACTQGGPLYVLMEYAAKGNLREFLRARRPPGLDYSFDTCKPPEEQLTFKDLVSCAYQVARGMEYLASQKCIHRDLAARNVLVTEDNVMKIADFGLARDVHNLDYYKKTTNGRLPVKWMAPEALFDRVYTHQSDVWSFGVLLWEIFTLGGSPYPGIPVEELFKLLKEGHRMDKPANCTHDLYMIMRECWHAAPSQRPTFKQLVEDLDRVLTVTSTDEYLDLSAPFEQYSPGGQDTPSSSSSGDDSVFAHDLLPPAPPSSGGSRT
Chain of Fibroblast growth factor receptor 2 (P21802 whole entry): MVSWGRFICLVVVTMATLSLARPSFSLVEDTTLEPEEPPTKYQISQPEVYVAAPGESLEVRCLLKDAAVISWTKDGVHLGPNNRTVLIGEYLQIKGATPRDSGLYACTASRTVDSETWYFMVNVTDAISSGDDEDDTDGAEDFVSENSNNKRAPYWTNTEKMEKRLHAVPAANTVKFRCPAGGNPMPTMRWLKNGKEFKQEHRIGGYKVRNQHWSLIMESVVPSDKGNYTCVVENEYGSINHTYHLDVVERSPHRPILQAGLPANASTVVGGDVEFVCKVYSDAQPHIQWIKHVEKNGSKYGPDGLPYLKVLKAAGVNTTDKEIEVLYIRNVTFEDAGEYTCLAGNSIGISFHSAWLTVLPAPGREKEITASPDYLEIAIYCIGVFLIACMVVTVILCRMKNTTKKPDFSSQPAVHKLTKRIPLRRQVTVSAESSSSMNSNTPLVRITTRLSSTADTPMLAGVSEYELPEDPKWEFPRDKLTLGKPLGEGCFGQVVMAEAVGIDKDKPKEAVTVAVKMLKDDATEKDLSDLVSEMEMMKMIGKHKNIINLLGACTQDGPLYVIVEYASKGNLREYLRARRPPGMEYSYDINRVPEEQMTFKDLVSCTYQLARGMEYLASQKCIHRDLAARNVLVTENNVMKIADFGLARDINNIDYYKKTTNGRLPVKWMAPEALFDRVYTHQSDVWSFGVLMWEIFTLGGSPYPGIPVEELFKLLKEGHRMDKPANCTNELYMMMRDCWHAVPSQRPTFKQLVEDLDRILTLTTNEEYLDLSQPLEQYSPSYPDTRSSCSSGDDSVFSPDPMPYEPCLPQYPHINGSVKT
Chain of Vascular endothelial growth factor receptor 1 (P17948 whole entry): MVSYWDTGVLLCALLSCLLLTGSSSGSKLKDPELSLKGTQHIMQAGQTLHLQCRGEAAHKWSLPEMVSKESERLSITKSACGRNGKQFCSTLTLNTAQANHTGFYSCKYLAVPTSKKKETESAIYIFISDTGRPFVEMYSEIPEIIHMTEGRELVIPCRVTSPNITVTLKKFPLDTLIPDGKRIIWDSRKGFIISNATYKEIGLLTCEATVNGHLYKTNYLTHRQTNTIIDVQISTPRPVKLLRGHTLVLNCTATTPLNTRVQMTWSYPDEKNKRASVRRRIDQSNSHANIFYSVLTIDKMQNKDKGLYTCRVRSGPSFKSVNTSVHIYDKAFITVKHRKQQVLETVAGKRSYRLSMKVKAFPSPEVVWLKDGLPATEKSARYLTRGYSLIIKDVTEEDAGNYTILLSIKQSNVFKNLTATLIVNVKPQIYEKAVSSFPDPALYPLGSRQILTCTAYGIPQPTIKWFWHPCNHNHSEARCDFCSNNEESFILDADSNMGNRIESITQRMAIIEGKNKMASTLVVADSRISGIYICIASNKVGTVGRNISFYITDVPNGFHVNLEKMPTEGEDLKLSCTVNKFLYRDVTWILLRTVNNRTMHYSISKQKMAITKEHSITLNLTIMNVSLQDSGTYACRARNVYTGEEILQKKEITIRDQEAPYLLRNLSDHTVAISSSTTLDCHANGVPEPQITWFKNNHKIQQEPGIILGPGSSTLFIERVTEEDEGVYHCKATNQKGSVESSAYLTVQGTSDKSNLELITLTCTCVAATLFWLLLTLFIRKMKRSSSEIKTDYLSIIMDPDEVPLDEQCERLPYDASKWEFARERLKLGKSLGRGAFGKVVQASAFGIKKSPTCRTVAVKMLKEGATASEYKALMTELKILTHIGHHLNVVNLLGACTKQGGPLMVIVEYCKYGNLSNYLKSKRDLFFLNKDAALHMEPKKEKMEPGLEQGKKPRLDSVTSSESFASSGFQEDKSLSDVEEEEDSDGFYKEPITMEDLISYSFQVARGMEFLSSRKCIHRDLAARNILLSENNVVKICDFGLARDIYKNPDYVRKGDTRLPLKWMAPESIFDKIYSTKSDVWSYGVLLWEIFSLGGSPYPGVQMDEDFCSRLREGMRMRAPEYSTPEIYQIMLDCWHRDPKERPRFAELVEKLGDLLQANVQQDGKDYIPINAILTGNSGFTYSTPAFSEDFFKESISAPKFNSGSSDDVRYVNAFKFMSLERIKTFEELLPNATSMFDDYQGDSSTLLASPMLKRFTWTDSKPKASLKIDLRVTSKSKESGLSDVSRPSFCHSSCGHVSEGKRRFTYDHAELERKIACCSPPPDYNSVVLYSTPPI

`C[C@@H](Oc1ccc2[nH]nc(-c3ccc(N4CC5(C4)CN(S(C)(=O)=O)C5)nc3)c2c1)c1c(Cl)cncc1Cl` gave an AUC(0-t) at 24 h [1] of 1500 ng·h/mL, an inhibition in vivo at 12.5 mg/kg (RT112/84 [2]) of 95% and an inhibition [3] of under 90%. It also gave a half-life [4] of 1.17 h, an IC50 [5] of 9.3 µM and a Tmax [6] of 4 h. The IC50 [7] was 0.206 µM, the IC50 [8] was 0.0021 µM and the IC50 (KG-1) was 0.109 µM. The Vd [9] was 2.5 L/kg, the half-life [10] was 24.8 h and the IC50 [11] was 0.007 µM. The IC50 [12] was 0.011 µM, the IC50 [13] was 0.036 µM and the AUC(0-t) at 24 h [14] was 3360 ng·h/mL. The half-life [15] was 1.93 h, the clearance [16] was 2.68 mL/min/kg and the IC50 [17] was 0.002 µM. The IC50 (RT-4) was 0.01 µM, the Tmax [18] was 6 h and the solubility thermodynamic [19] was 514 µM (≈ 288 µg/mL). The IC50 [20] was 0.021 µM, the solubility thermodynamic [21] was 20 µM (≈ 11.2 µg/mL) and the IC50 [22] was 0.021 µM. It also gave an IC50 [23] of 0.201 µM, a Papp [24] of 1.1 ×10⁻⁶ cm/s and a Vd [25] of 1.12 L/kg. It also gave an IC50 [26] of 0.073 µM, an IC50 [27] of 0.016 µM and an IC50 [28] of 0.108 µM. For the same compound, the half-life at 1 µM [29] was over 1.67 h, the Cmax [30] was 1210 ng/mL and the IC50 [31] was 0.021 µM. It also gave an IC50 (DMS-114) of 0.205 µM, an IC50 [32] of 0.0023 µM and an AUC(0-t) at 24 h [33] of 58300 ng·h/mL. For the same compound, the CLint scaled at 1 µM [34] was 14 mL/min/kg, the AUC(0-t) at 24 h [35] was 5930 ng·h/mL and the half-life [36] was 5.52 h. The IC50 [37] was 0.011 µM, the IC50 (RT112/84 [38]) was 0.017 µM and the IC50 [39] was 0.0016 µM. For the same compound, the IC50 (RT112/84 [40]) was 0.009 µM, the clearance [41] was 17.5 mL/min/kg and the Tmax [42] was 6 h. The inhibition in vivo at 12.5 mg/kg (RT112/84 [43]) was 77% and the half-life at 1 µM [44] was over 1.67 h.
